The text below walks through data of ChEMBL document CHEMBL3638540, “Pyrolinone derivative and pharmaceutical composition comprising the same” (2013).

Molecules are shown by their SMILES.

This experiment has as its target T1, P2X purinoceptor 3 (Homo sapiens, UniProt P56373).
T1 sequence (P56373 whole entry): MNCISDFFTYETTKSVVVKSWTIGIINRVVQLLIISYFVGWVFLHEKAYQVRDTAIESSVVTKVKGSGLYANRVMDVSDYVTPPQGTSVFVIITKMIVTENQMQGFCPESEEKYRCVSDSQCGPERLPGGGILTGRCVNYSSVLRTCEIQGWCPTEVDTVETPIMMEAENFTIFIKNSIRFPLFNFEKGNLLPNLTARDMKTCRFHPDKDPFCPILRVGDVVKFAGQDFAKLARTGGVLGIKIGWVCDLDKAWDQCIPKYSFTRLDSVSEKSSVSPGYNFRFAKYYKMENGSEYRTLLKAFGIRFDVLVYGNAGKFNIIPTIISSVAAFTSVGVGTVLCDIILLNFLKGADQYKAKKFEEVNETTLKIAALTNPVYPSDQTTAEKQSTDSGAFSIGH
The experiment can be described thus: Inhibiton Assay: Inhibition assay using human P2X3 receptor gene (GeneBank accession number Y07683).
One may read the IC50 as the concentration needed to halve the response being measured. As for `COc1ccccc1C1c2c(n[nH]c2C(C)(C)CO)C(=O)N1c1ccc(Br)cc1` (stereo not drawn), the IC50 was determined as 473 nM.

Turning to `COc1ncccc1C1c2c(n[nH]c2C(C)(C)C)C(=O)N1c1ccc(Br)cc1` (stereo not drawn), the IC50 was 811 nM.

As for `COc1ccccc1C1c2c(n[nH]c2C(C)(C)C)C(=O)N1c1ccc(Br)cc1` (stereo not drawn), the IC50 stood at 238 nM.
